Measured values reported in patent publication US11345711B2, “8,9-dihydroimidazo[1,2-a]pyrimido[5,4-e]pyrimidin-5(6H)-ones” (IMPACT THERAPEUTICS (SHANGHAI), INC, priority 2016, dated 2022).
Where two headings read alike, the source gives them in different places.

Legend:
NCI-H1299 cells = experiment: MTT based cell viability assay on NCI-H1299 cells; settings: Homo sapiens, read-out: IC50, growth inhibition of NCI-H1299 cells
Outline: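 Viability read-out was MTT reduction (0.5 mg/mL, 4 h, absorbance 552/630/690 nm) after 3-day compound exposure at 37 °C of NCI-H1299 cells seeded at 1000 per well. Dilutions spanned 10 μM–0.01 μM in DMSO, final DMSO 1‰. Survival-versus-concentration curves were fitted sigmoidally to give IC50.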

LoVo cells = experiment: MTT based cell viability assay on LoVo cells; settings: Homo sapiens, LoVo, 72 h, 3 d, read-out: IC50, growth inhibition of LoVo cells
Outline: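 Inhibition of LoVo proliferation was derived as IC50 from a sigmoidal dose-response fit of cell survival. Readout was MTT (0.5 mg/mL, 4 h) with absorbance at 552/630/690 nm, after 3-day treatment at 37 °C. Eight-point series from 10 μM to 0.01 μM, DMSO control, 1% DMSO final.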

Wee1 (h) = Wee1 (h) (Homo sapiens, UniProt P30291); experiment: Wee1 kinase (h) detection method, [γ-33P]-ATP filter assay; assay type: biochemical
Wee1 (h), sequence (P30291 whole entry): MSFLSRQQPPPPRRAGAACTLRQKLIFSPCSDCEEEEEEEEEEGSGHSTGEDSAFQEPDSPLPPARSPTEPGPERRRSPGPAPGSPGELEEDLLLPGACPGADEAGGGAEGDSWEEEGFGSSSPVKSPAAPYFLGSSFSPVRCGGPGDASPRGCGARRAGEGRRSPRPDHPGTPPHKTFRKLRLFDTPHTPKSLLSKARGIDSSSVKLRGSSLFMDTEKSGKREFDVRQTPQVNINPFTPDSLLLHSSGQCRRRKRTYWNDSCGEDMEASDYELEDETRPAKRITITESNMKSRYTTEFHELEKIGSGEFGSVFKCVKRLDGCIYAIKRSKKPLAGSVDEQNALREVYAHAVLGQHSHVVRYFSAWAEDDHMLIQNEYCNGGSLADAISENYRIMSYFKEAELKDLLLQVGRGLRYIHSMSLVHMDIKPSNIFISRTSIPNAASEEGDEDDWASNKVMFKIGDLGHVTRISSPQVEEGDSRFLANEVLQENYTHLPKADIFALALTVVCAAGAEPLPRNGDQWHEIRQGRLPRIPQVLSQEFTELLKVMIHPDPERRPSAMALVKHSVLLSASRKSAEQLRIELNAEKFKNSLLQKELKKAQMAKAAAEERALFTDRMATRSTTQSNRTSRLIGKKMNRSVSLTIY

Row | SMILES | IC50 (NCI-H1299 cells; NCI-H1299 cells) [nM] | IC50 (LoVo cells) [nM] | Inh. (%) of Wee1 kinase enzyme activity (Wee1 (h); C 1 μm compound) [%] | IC50 (NCI-H1299 cells; NCI-H1299, NCI-H1299 cells) [nM] | Inh. (%) of Wee1 kinase enzyme activity (Wee1 (h); C 0.01 μm compound) [%] | Inh. (%) of Wee1 kinase enzyme activity (Wee1 (h); C 0.1 μm compound) [%]
1 | CN1CCN(c2ccc(Nc3ncc4c(n3)N3CCN=C3N(c3cccnc3)C4=O)cc2)CC1 [Example 98, 6-(Pyridin-3-yl)-2-((4-(4-methylpiperazin-1-yl)phenyl)amino)-8,9-dihydroimidazo[1,2-a]pyrimido[5,4-e]pyrimidin-5(6H)-one] | > 10000 | > 100000 | 2 |  |  | 
2 | CN1CCN(c2ccc(Nc3ncc4c(n3)N3CCN=C3N(c3ccncc3)C4=O)cc2)CC1 [Example 99, 6-(Pyridin-4-yl)-2-((4-(4-methylpiperazin-1-yl)phenyl)amino)-8,9-dihydroimidazo[1,2-a]pyrimido[5,4-e]pyrimidin-5(6H)-one] | > 10000 | > 100000 | 8 |  |  | 
3 | CN1CCN(c2ccc(Nc3ncc4c(n3)N3CCN=C3N(c3c(F)cccc3F)C4=O)cc2Cl)CC1 [Example 100, 6-(2,6-Difluorophenyl)-2-((3-chloro-4-(4-methylpiperazin-1-yl)phenyl)amino)-8,9-dihydroimidazo[1,2-a]pyrimido[5,4-e]pyrimidin-5(6H)-one] | 532 | 172 | 87 |  |  | 
4 | Cc1cc(Nc2ncc3c(n2)N2CCN=C2N(c2c(F)cccc2F)C3=O)cc(C)c1N1CCN(C)CC1 [Example 101, 6-(2,6-Difluorophenyl)-2-((3,5-dimethyl-4-(4-methylpiperazin-1-yl)phenyl)amino)-8,9-dihydroimidazo[1,2-a]pyrimido[5,4-e]pyrimidin-5(6H)-one] |  | 95.4 | 95 | 214 | 22 | 70
5 | O=C1c2cnc(Nc3ccc(-n4ccnc4)cc3)nc2N2CCN=C2N1c1c(F)cccc1Cl [Example 102, 6-(2-Chloro-6-fluorophenyl)-2-((4-(1H-imidazol-1-yl)phenyl)amino)-8,9-dihydroimidazo[1,2-a]pyrimido[5,4-e]pyrimidin-5(6H)-one] | > 10000 | > 100000 | 7 |  |  | 
6 | CN1CCCN(c2ccc(Nc3ncc4c(n3)N3CCN=C3N(c3c(F)cccc3Cl)C4=O)cc2)CC1 [Example 103, 6-(2-Chloro-6-fluorophenyl)-2-((4-(4-methyl-1,4-diazepan-1-yl)phenyl)amino)-8,9-dihydroimidazo[1,2-a]pyrimido[5,4-e]pyrimidin-5(6H)-one] | 1050 | 678 | 92 |  | 30 | 70
7 | CN1CCN(Cc2ccc(Nc3ncc4c(n3)N3CCN=C3N(c3c(F)cccc3Cl)C4=O)cc2)CC1 [Example 104, 6-(2-Chloro-6-fluorophenyl)-2-((4-((4-methylpiperazin-1-yl)methyl)phenyl)amino)-8,9-dihydroimidazo[1,2-a]pyrimido[5,4-e]pyrimidin-5(6H)-one] | 1050 | 460 | 93 |  |  | 
8 | CN(C)CCOc1ccc(Nc2ncc3c(n2)N2CCN=C2N(c2c(F)cccc2Cl)C3=O)cc1 [Example 105, 6-(2-Chloro-6-fluorophenyl)-2-((4-(2-(dimethylamino)ethoxy)phenyl)amino)-8,9-dihydroimidazo[1,2-a]pyrimido[5,4-e]pyrimidin-5(6H)-one] | 911 | 373 | 97 |  | 40 | 85
9 | CN(C)CCCOc1ccc(Nc2ncc3c(n2)N2CCN=C2N(c2c(F)cccc2Cl)C3=O)cc1 [Example 106, 6-(2-Chloro-6-fluorophenyl)-2-((4-(3-(dimethylamino)propoxy)phenyl)amino)-8,9-dihydroimidazo[1,2-a]pyrimido[5,4-e]pyrimidin-5(6H)-one] | 835 | 330 | 94 |  | 38 | 83
10 | CN1CCC(Oc2ccc(Nc3ncc4c(n3)N3CCN=C3N(c3c(F)cccc3Cl)C4=O)cc2)CC1 [Example 107, 6-(2-Chloro-6-fluorophenyl)-2-((4-((1-methylpiperidin-4-yl)oxy)phenyl)amino)-8,9-dihydroimidazo[1,2-a]pyrimido[5,4-e]pyrimidin-5(6H)-one] | 794 | 360 | 95 |  |  | 
11 | CN(C)CCNc1ccc(Nc2ncc3c(n2)N2CCN=C2N(c2c(F)cccc2Cl)C3=O)cc1 [Example 108, 6-(2-Chloro-6-fluorophenyl)-2-((4-((2-(dimethylamino)ethyl)amino)phenyl)amino)-8,9-dihydroimidazo[1,2-a]pyrimido[5,4-e]pyrimidin-5(6H)-one] |  | 1500 | 96 | 899 |  | 
12 | CN(C)CCN(C)c1ccc(Nc2ncc3c(n2)N2CCN=C2N(c2c(F)cccc2Cl)C3=O)cc1 [Example 109, 6-(2-Chloro-6-fluorophenyl)-2-((4-((2-(dimethylamino)ethyl)(methyl)amino)phenyl)amino)-8,9-dihydroimidazo[1,2-a]pyrimido[5,4-e]pyrimidin-5(6H)-one] | 884 | 1150 | 96 |  |  | 
13 | CN(C)CCCNc1ccc(Nc2ncc3c(n2)N2CCN=C2N(c2c(F)cccc2Cl)C3=O)cc1 [Example 110, 6-(2-Chloro-6-fluorophenyl)-2-((4-((3-(dimethylamino)propyl)amino)phenyl)amino)-8,9-dihydroimidazo[1,2-a]pyrimido[5,4-e]pyrimidin-5(6H)-one] | 599 | 472 | 96 |  |  | 
14 | CN(C)CCCN(C)c1ccc(Nc2ncc3c(n2)N2CCN=C2N(c2c(F)cccc2Cl)C3=O)cc1 [Example 111, 6-(2-Chloro-6-fluorophenyl)-2-((4-((3-(dimethylamino)propyl)(methyl)amino)phenyl)amino)-8,9-dihydroimidazo[1,2-a]pyrimido[5,4-e]pyrimidin-5(6H)-one] | 913 | 835 | 96 |  |  | 
15 | CN1CCC(Nc2ccc(Nc3ncc4c(n3)N3CCN=C3N(c3c(F)cccc3Cl)C4=O)cc2)CC1 [Example 112, 6-(2-Chloro-6-fluorophenyl)-2-((4-((1-methylpiperidin-4-yl)amino)phenyl)amino)-8,9-dihydroimidazo[1,2-a]pyrimido[5,4-e]pyrimidin-5(6H)-one] |  | 393 | 97 | 481 |  | 
16 | CN1CCC(N(C)c2ccc(Nc3ncc4c(n3)N3CCN=C3N(c3c(F)cccc3Cl)C4=O)cc2)CC1 [Example 113, 6-(2-Chloro-6-fluorophenyl)-2-((4-(methyl(1-methylpiperidin-4-yl)amino)phenyl)amino)-8,9-dihydroimidazo[1,2-a]pyrimido[5,4-e]pyrimidin-5(6H)-one] |  | 483 | 96 | 672 |  | 
17 | CN1CCC(c2ccc(Nc3ncc4c(n3)N3CCN=C3N(c3c(F)cccc3Cl)C4=O)cc2)CC1 [Example 114, 6-(2-Chloro-6-fluorophenyl)-2-((4-(1-methylpiperidin-4-yl)phenyl)amino)-8,9-dihydroimidazo[1,2-a]pyrimido[5,4-e]pyrimidin-5(6H)-one] |  | 105 | 98 | 233 |  | 
18 | CN(C)C1CCN(c2ccc(Nc3ncc4c(n3)N3CCN=C3N(c3c(F)cccc3Cl)C4=O)cc2)CC1 [Example 115, 6-(2-Chloro-6-fluorophenyl)-2-((4-(4-(dimethylamino)piperidin-1-yl)phenyl)amino)-8,9-dihydroimidazo[1,2-a]pyrimido[5,4-e]pyrimidin-5(6H)-one] |  | 265 | 96 | 381 | 34 | 81
19 | CN(C)C1CCN(c2ccc(Nc3ncc4c(n3)N3CCN=C3N(c3c(F)cccc3Cl)C4=O)cc2F)CC1 [Example 116, 6-(2-Chloro-6-fluorophenyl)-2-((4-(4-(dimethylamino)piperidin-1-yl)-3-fluorophenyl)amino)-8,9-dihydroimidazo[1,2-a]pyrimido[5,4-e]pyrimidin-5(6H)-one] |  | 123 | 98 | 265 | 19 | 77
20 | CN(C)C1CCN(c2ccc(Nc3ncc4c(n3)N3CCN=C3N(c3c(F)cccc3Cl)C4=O)cc2Cl)CC1 [Example 117, 6-(2-Chloro-6-fluorophenyl)-2-((3-chloro-4-(4-(dimethylamino)piperidin-1-yl)phenyl)amino)-8,9-dihydroimidazo[1,2-a]pyrimido[5,4-e]pyrimidin-5(6H)-one] |  | 66.2 | 98 | 103 | 22 | 84
21 | CN(C)C1CCN(c2ccc(Nc3ncc4c(n3)N3CCN=C3N(c3c(F)cccc3Cl)C4=O)cc2Br)CC1 [Example 118, 6-(2-Chloro-6-fluorophenyl)-2-((3-bromo-4-(4-(dimethylamino)piperidin-1-yl)phenyl)amino)-8,9-dihydroimidazo[1,2-a]pyrimido[5,4-e]pyrimidin-5(6H)-one] |  | 81.1 | 96 | 96.4 | 25 | 82
